Common to all, as to assay type: cell-based
Experiment [1] relates to HCV genotype 1 b (HCV replicon system). Put plainly: HCV replicon system genotype 1b, Renilla luciferase activity. As to conditions: Hepatitis C virus, 72 h, HCV genotype 1b replicon, Rluc, 3 days, read-out: Replicon EC50 1b type. The procedure: (§1) From human liver cells (Huh7.5.1 cell) infected by hepatitis C virus, the anti-virus effects by the compound of the present invention were measured. From HCV genotype 1 b (HCV replicon system), genotype 2a (HCV cell culture system, HCVcc), and genotype 3a, the EC50 values were measured.
In order to measure the EC50 value from HCV genotype 1 b, the degrees of HCV replication inhibitory activities of an experimental compound were measured. The EC50 value was measured by treating the experimental compound with the HCV replicon systems (genotype 1 b) having Renilla luciferase (Rluc) genes and genotype 1 b non-structure genes under various concentration conditions to compare the activity degree of the luciferase after 3 days elapsed time with that of the control.
A general note: A replicon is a self-replicating genome or part of one, used to study replication in cells.

In experiment [2] the test system is HCV genotype 2a (HCV cell culture system, HCVcc). Put plainly: HCVcc genotype 2a JFH1 (JFH 5a-Rluc) virus in Huh7.5.1 cells, luciferase assay. The settings on record: Hepatitis C virus, Huh-7.5.1, 72 h, HCV genotype 2a JFH 5a-Rluc, 3 days, read-out: Replicon EC50 2a type. The procedure: as §1
In order to measure the EC50 value from HCV genotype 2a, a luciferase assay was used. A JFH1 clone (JFH 5a-Rluc) virus constructed to have a Renilla luciferase enzyme (Rluc) gene in NS5A protein was infected with Huh7.5.1 cell being a host cell, and then the EC50 value was measured by taking cells grown for 3 days by treating the experimental compound under various concentration conditions, and analyzing the activity degree of the luciferase.

The test system of experiment [3] is HCV genotype 3a (HCV replicon system). Description: HCV replicon system genotype 3a, firefly luciferase activity. The settings on record: Hepatitis C virus, 72 h, HCV genotype 3a replicon, Fluc, 3 days, read-out: Replicon EC50 3a type. The method, then: as §1
In order to measure the EC50 value from genotype 3a, the value was measured through the luciferase activity. A HCV replicon system having firefly luciferase (Fluc) genes and genotype 3a non-structure genes was used. The HCV replicon system having the genes as described above was used to treat the experimental compound under various concentration conditions, and then 3 days later, the EC50 value was measured by comparing the luciferase activity with that of the control.

The mark [4] stands for this setting: range limits given with own units (pM to nM).

Consider 14 molecules from patent publication US10421779B2, “Carbazole compound having anti-virus activity” (priority 2016, dated 2019).

Where two headings read alike, the source gives them in different places.

Turning to `CCCCCCCCCCn1c2cc(NC(=O)[C@@H]3CCCN3C(=O)[C@H](NC(=O)OC)c3ccccc3)ccc2c2ccc(NC(=O)[C@@H]3CCCN3C(=O)[C@H](NC(=O)OC)c3ccccc3)cc21` [Example 24, dimethyl ((1R,1′R)-((2S,2′S)-(((9-decyl-9H-carbazole-2,7-diyl)bis(azanediyl))bis(carbonyl))bis(pyrrolidine-2,1-diyl))bis(2-oxo-1-phenylethane-2,1-diyl))dicarbamate], the EC50 (commonly the concentration giving half of the maximal effect) in experiment [1] was roughly 10 pM; in experiment [2], 10 to 100 nM.
Regarding `CCCCCCCC(c1ccccc1)n1c2cc(NC(=O)[C@@H]3CCCN3C(=O)[C@H](NC(=O)OC)c3ccccc3)ccc2c2ccc(NC(=O)[C@@H]3CCCN3C(=O)[C@H](NC(=O)OC)c3ccccc3)cc21` (stereo partly drawn) [Example 29, dimethyl ((1R,1′R)-((2S,2′S)-(((9-(1-phenyloctyl)-9H-carbazole-2,7-diyl)bis(azanediyl))bis(carbonyl))bis(pyrrolidine-2,1-diyl))bis(2-oxo-1-phenylethane-2,1-diyl))dicarbamate], the half-maximal effective concentration (EC50) in experiment [1] lay within 10 to 100 pM; in experiment [2] it was 1 to 10 nM; in experiment [3], 10000 to 100000 pM.
Turning to `CCCCCOc1cccc(Cn2c3cc(NC(=O)[C@@H]4CCCN4C(=O)[C@H](NC(=O)OC)c4ccccc4)ccc3c3ccc(NC(=O)[C@@H]4CCCN4C(=O)[C@H](NC(=O)OC)c4ccccc4)cc32)c1` [Example 30, dimethyl ((1R,1′R)-((2S,2′S)-(((9-(3-(pentyloxy)benzyl)-9H-carbazole-2,7-diyl)bis(azanediyl))bis(carbonyl))bis(pyrrolidine-2,1-diyl))bis(2-oxo-1-phenylethane-2,1-diyl))dicarbamate], the figures for the EC50 in experiment [1], in experiment [2] and in experiment [3] were 10 to 100 pM, roughly 1 nM and 71 pM, respectively.
Take `CCCCOc1ccccc1Cn1c2cc(NC(=O)[C@@H]3CCCN3C(=O)[C@H](NC(=O)OC)c3ccccc3)ccc2c2ccc(NC(=O)[C@@H]3CCCN3C(=O)[C@H](NC(=O)OC)c3ccccc3)cc21` [Example 32, dimethyl ((1R,1′R)-((2S,2′S)-(((9-(2-butoxybenzyl)-9H-carbazole-2,7-diyl)bis(azanediyl))bis(carbonyl))bis(pyrrolidine-2,1-diyl))bis(2-oxo-1-phenylethane-2,1-diyl))dicarbamate]: the concentration giving a half-maximal response (EC50) in experiment [1] (setting [4]) fell in the range of 100 to 1000 pM; in experiment [2], 1 to 10 nM.
For `COC(=O)N[C@@H](C(=O)N1CCC[C@H]1C(=O)Nc1ccc2c3ccc(NC(=O)[C@@H]4CCCN4C(=O)[C@H](NC(=O)OC)c4ccccc4)cc3n(CCCCCCCCCCN3CCN(C)CC3)c2c1)c1ccccc1` [Example 33, dimethyl ((1R,1′R)-((2S,2′S)-(((9-(10-(4-methylpiperazine-1-yl)decyl)-9H-carbazole-2,7-diyl)bis(azanediyl))bis(carbonyl))bis(pyrrolidine-2,1-diyl))bis(2-oxo-1-phenylethane-2,1-diyl))dicarbamate], the EC50 in experiment [1] (setting [4]) and in experiment [3] (setting [4]) was 100 to 1000 pM throughout.
As for `COC(=O)N[C@@H](C(=O)N1CCC[C@H]1C(=O)Nc1ccc2c3ccc(NC(=O)[C@@H]4CCCN4C(=O)[C@H](NC(=O)OC)c4ccccc4)cc3n(Cc3cccc([N+](=O)[O-])c3)c2c1)c1ccccc1` [Example 37, dimethyl ((1R,1′R)-((2S,2′S)-(((9-(3-nitrobenzyl)-9H-carbazole-2,7-diyl)bis(azanediyl))bis(carbonyl))bis(pyrrolidine-2,1-diyl))bis(2-oxo-1-phenylethane-2,1-diyl))dicarbamate], the EC50 in experiment [1] turned out to be 14.5 pM; in experiment [3] it was 87.4 pM.
Turning to `COC(=O)N[C@@H](C(=O)N1CCC[C@H]1C(=O)Nc1ccc2c3ccc(NC(=O)[C@@H]4CCCN4C(=O)[C@H](NC(=O)OC)c4ccccc4)cc3n(Cc3cccc(NC(=O)C(C)(C)C)c3)c2c1)c1ccccc1` [Example 38, dimethyl ((1R,1′R)-((2S,2′S)-(((9-(3-pivalamidobenzyl)-9H-carbazole-2,7-diyl)bis(azanediyl))bis(carbonyl))bis(pyrrolidine-2,1-diyl))bis(2-oxo-1-phenylethane-2,1-diyl))dicarbamate], the EC50 in experiment [1] stood at 35.4 pM; in experiment [3], 81.9 pM.
Turning to `COC(=O)N[C@@H](C(=O)N1CCC[C@H]1C(=O)Nc1ccc2c3ccc(NC(=O)[C@@H]4CCCN4C(=O)[C@H](NC(=O)OC)c4ccccc4)cc3n(Cc3ccccc3C(F)(F)F)c2c1)c1ccccc1` [Example 43, dimethyl ((1R,1′R)-((2S,2′S)-(((9-(2-(trifluoromethyl)benzyl)-9H-carbazole-2,7-diyl)bis(azanediyl))bis(carbonyl))bis(pyrrolidine-2,1-diyl))bis(2-oxo-1-phenylethane-2,1-diyl))dicarbamate], the values for the EC50 in experiment [1] and in experiment [2] were roughly 10 pM and greater than 10 nM, respectively.
Consider `COC(=O)N[C@@H](C(=O)N1CCC[C@H]1C(=O)Nc1ccc2c3ccc(NC(=O)[C@@H]4CCCN4C(=O)[C@H](NC(=O)OC)c4ccccc4)cc3n(Cc3cccc(C(F)(F)F)c3)c2c1)c1ccccc1` [Example 44, dimethyl ((1R,1′R)-((2S,2′S)-(((9-(3-(trifluoromethyl)benzyl)-9H-carbazole-2,7-diyl)bis(azanediyl))bis(carbonyl))bis(pyrrolidine-2,1-diyl))bis(2-oxo-1-phenylethane-2,1-diyl))dicarbamate], for which the EC50 in experiment [1] was roughly 10 pM; in experiment [2] it was greater than 10 nM; in experiment [3] it was 10 to 100 pM.
Consider `COC(=O)N[C@@H](C(=O)N1CCC[C@H]1C(=O)Nc1ccc2c3ccc(NC(=O)[C@@H]4CCCN4C(=O)[C@H](NC(=O)OC)c4ccccc4)cc3n(Cc3ccc(C(F)(F)F)cc3)c2c1)c1ccccc1` [Example 45, dimethyl ((1R,1′R)-((2S,2′S)-(((9-(4-(trifluoromethyl)benzyl)-9H-carbazole-2,7-diyl)bis(azanediyl))bis(carbonyl))bis(pyrrolidine-2,1-diyl))bis(2-oxo-1-phenylethane-2,1-diyl))dicarbamate], for which the results for the EC50 in experiment [1], in experiment [2] and in experiment [3] were roughly 10 pM, greater than 10 nM and 199 pM, respectively.
`COC(=O)N[C@@H](C(=O)N1CCC[C@H]1C(=O)Nc1ccc2c3ccc(NC(=O)[C@@H]4CCCN4C(=O)[C@H](NC(=O)OC)c4ccccc4)cc3n(CC3CCCCC3)c2c1)c1ccccc1` [Example 48, dimethyl ((1R,1′R)-((2S,2′S)-(((9-(cyclohexylmethyl)-9H-carbazole-2,7-diyl)bis(azanediyl))bis(carbonyl))bis(pyrrolidine-2,1-diyl))bis(2-oxo-1-phenylethane-2,1-diyl))dicarbamate]: the values for the EC50 in experiment [1] and in experiment [3] were 7.41 pM and 161 pM, respectively.
Take `COC(=O)N[C@@H](C(=O)N1CCC[C@H]1C(=O)Nc1ccc2c3ccc(NC(=O)[C@@H]4CCCN4C(=O)[C@H](NC(=O)OC)c4ccccc4)cc3n(C(C3CC3)C3CC3)c2c1)c1ccccc1` [Example 49, dimethyl ((1R,1′R)-((2S,2′S)-(((9-(dicyclopropylmethyl)-9H-carbazole-2,7-diyl)bis(azanediyl))bis(carbonyl))bis(pyrrolidine-2,1-diyl))bis(2-oxo-1-phenylethane-2,1-diyl))dicarbamate]: the figures for the EC50 in experiment [1], in experiment [2] and in experiment [3] were 8.4 pM, greater than 10 nM and 76.6 pM, respectively.
On to `COC(=O)N[C@@H](C(=O)N1CCC[C@H]1C(=O)Nc1ccc2c3ccc(NC(=O)[C@@H]4CCCN4C(=O)[C@H](NC(=O)OC)c4ccccc4)cc3n(CCc3ccccc3)c2c1)c1ccccc1` [Example 50, dimethyl ((1R,1′R)-((2S,2′S)-(((9-phenethyl-9H-carbazole-2,7-diyl)bis(azanediyl))bis(carbonyl))bis(pyrrolidine-2,1-diyl))bis(2-oxo-1-phenylethane-2,1-diyl))dicarbamate], for which the concentration giving a half-maximal response (EC50) in experiment [1] was found to be 4.34 pM; in experiment [3], 183 pM.
Regarding `CCCCn1c2cc(NC(=O)[C@@H]3CCCN3C(=O)[C@H](NC(=O)OC)c3ccccc3)ccc2c2ccc(-c3c[nH]c([C@@H]4CCCN4C(=O)[C@H](NC(=O)OC)c4ccccc4)n3)cc21` [Example 51, methyl ((R)-2-((S)-2-((9-butyl-7-(2-((S)-1-((R)-2-((methoxycarbonyl)amino)-2-phenylacetyl)pyrrolidine-2-yl)-1H-imidazole-4-yl)-9H-carbazole-2-yl)carbamoyl)pyrrolidine-1-yl)-2-oxo-1-phenylethyl)carbamate], the EC50 stood at 14.5 pM in experiment [1], 0.387 nM in experiment [2] and 193 pM in experiment [3].
